In patent publication US20240069027A1, “USE OF NITROGEN-DOPED CARBON FLUORESCENT QUANTUM DOT IN PREPARATION OF PRODUCT FOR DETECTING AEROBIC GLYCOLYSIS” (SHANGHAI NINTH PEOPLE'S HOSPITAL, SHANGHAI JIAOTONG …, priority 2020, published 2024):

System: A375 cells
Assay: Aerobic glycolysis (NAD+) fluorescence of PFK15-treated A375 cells read out with C3N quantum dots
Type: cell-based
Settings: PFK15 20 nM, 12 h; then C3N quantum dots 1 μg/mL 2 h at 25° C.; excitation 400 nm
Procedure: A375 cells were selected as the samples to be tested with a cell concentration of 10^5.
[…] (PFK15, 20 nM) was added to the cell samples to be tested and incubated for 12 h. C3N quantum dots (with a diameter of 1 nm, a concentration of 1 μg/mL, a solvent of saline) were selected as the aerobic glycolysis detection product. 1 μL of C3N quantum dots were added to the samples to be tested and incubated for 2 h at 25° C. The fluorescence of the samples was observed by a fluorescence microscope (with an excitation wavelength of 400 nm). It can be seen that the fluorescence of the A375 cells with PFK15 treatment (PFK15 can block the aerobic glycolysis metabolism and reduce the NAD^+ concentration in cytoplasm) was decreased by 43% compared with that of the group without PFK15 treatment (results were shown in FIG. 5).

O=C(C=Cc1ccc2ccccc2n1)c1ccncc1 [PFK15, 1-(4-pyridinyl)-3-(2-quinolinyl)-2-propen-1-one]
decrease of fluorescence of A375 cells compared with group without PFK15 treatment: 43%
